Patent publication US20210161929A1, “USES OF VERBASCOSIDE IN TREATMENT OF DIABETIC-ASSOCIATED KDINEY INJURY AND DIABETIC-ASSOCIATED LIVER INJURY” (NANJING UNIVERSITY OF CHINESE MEDICINE, priority 2018, published 2021)

Experiments:
[1] = test system: NOX1, NOX2, NOX4, α-SMA, E-cadherin, NF-κB p65, TGF-β1, Smad2, Smad3, Smad4 and Smad7 in HK-2 cells; test: Protein expression in high-glucose induced HK-2 cells (Western blotting); format: cell-based, human; details: for effect on the formation of EMT: in vitro studies, HK-2, discussion
Procedure: The expression quantity of related proteins and mRNA in each cell is detected using Western blotting method and Real-time PCR, and the secretion of related factors in cell supernatant is detected using ELISA. […] Human renal tubular epithelial cells (HK-2) were provided by Nanjing KeyGEN Biotechnology Development Co., Ltd. The complete medium was a low-sugar DMEM with 10% FBS and 1% penicillin-streptomycin solution. The cells were cultured at 37° C. under 5% CO2 and saturated humidity in an incubator. Cells were spread in a 96-well plate and cultured with a 5 mmol/Llow-sugar DMEM for 24 hours. […] The number of cells in each group was detected using a cell counting method after 48 hours of the incubation.

[2] = test system: HK-2 cells; test: Proliferation of high-glucose induced HK-2 cells; format: cell-based, human; details: for effect on the proliferation of HK-2: in vitro studies, discussion; for OD / inhibition ratio %: 48 hours
Procedure: (§1) Human renal tubular epithelial cells (HK-2) were provided by Nanjing KeyGEN Biotechnology Development Co., Ltd. The complete medium was a low-sugar DMEM with 10% FBS and 1% penicillin-streptomycin solution. The cells were cultured at 37° C. under 5% CO2 and saturated humidity in an incubator. Cells were spread in a 96-well plate and cultured with a 5 mmol/Llow-sugar DMEM for 24 hours. […] The number of cells in each group was detected using a cell counting method after 48 hours of the incubation.

[3] = test system: db/db mice; test: Biochemical indexes of db/db mice after 6 weeks of intragastric administration; format: in vivo; details: ig once a day for 6 weeks, metformin 250, irbesartan 50, verbascoside 70.8 mg·kg^−1·d^−1
Procedure: 32 male db/db mice and 10 male db/m mice of SPF grade, aged 6-8 weeks and weighing 25-40 g, were purchased from Nanjing Biomedical Research Institute of Nanjing University with an animal license number of SCXK (Su 2015-0001).The mice were raised in an animal room under alternating light and dark every 12 hours with constant temperature of 22±2° C. and humidity of 55±10%.
All mice were adaptively fed for 3 weeks, and db/m mice were used as a control group with a total number of 10. Db/db mice were randomly divided into four groups according to blood sugar and body weight each of 8 mice, and the four groups respectively were a model group (M), a metformin group (EJSG, 250 mg·kg^−1·d^−1), an irbesartan group (EBST, 50 mg·kg^−1·d^−1) and a verbascoside group (MRHTG, 70.8 mg·kg^−1·d^−1). The same amount of saline was intragastrically administered(ig) to the mice in the control group and the model group, and the volume of intragastric administration (ig) was 10 mL·kg^−1, and such administration was performed once a day for continuous 6 weeks.
One day before the end of the experiment, urine was collected in a metabolic cage for 12 hours and the urine volume was recorded. Microalbuminuria content was measured and fasting blood glucose (FBG) of mice in each group was measured by tail vein blood sampling. After drug intervention, mice were anesthetized with intraperitoneal injection of 10% chloral hydrate, and blood was collected from eyeballs. The blood was centrifuged at 3000 rpm and 4° C. for 10 minutes to obtain a serum. The serum was then subjected to determination of serum creatinine, blood urea nitrogen, blood insulin, cholesterol, triglyceride, glutamic-pyruvic transaminase and glutamic-oxalacetic transaminase contents.

[4] = test system: db/db mice serum; test: Serum metabonomics (UPLC-QTOF/MS, PLS-DA) of db/db mice; format: in vivo; details: mouse serum, mean ± SD, n = 6; for Relative distance between administration group and control group in PLS-DA score plot, ESI −: negative ion mode, model group 43.46 ± 3.15; for Relative distance between administration group and control group in PLS-DA score plot, ESI +: positive ion mode, model group 36.62 ± 3.28
Procedure: After 6 weeks of administration, each of the mice was subjected to blood collection by removing eyeballs. The blood sample was centrifuged at 4° C. and 3000 rpm for 10 minutes to obtain a serum. 100 μL of the frozen-thawed serum was mixed uniformly with 300 μL of acetonitrile under vortex for 2 minutes to produce a mixture. The mixture was centrifuged at 4° C. and 13000 rpm for 10 minutes, and the protein precipitate was removed while the supernatant was collected for determination.
Chromatographic conditions: ACQUITY™UPLC BEH C18 column (2.1 mm×100 mm, 1.7 μm); and mobile phase: 0.1% formic acid aqueous solution (A)−acetonitrile (B). The gradient elution of serum was programmed as follows: 0-3 minutes, 95%-55% A; […], 55%-5% A; 13-14 minutes, 5% A. The injection volume was 2 μL and a column temperature of 35° C. was employed.
Mass spectrometry conditions: ESI ion source (ESI^+/ESI^−); mass scanning range: 100-1000 m/z; a capillary voltage of 3.0 kV and a cone voltage of 30 V; an extraction voltage of 2.0 V; ion source temperature and desolvation temperature: respectively 120° C. and 350° C.; cone gas flow rate: 50 L/h; collision energy: 20-50 eV; desolvation gas flow rate: 600 L/h; activation time: 30 ms; and collision gas: high-purity nitrogen. Leucine-enkephalin (ESI^−: 555.2615 m/z, ESI^+: 556.2771 m/z) solution of 200 pg/mL was used as a mass-locking solution at a flow rate of 100 μL/min.
The obtained original mass spectrometry data was processed using Masslynx v4.1 software. The main parameters included: retention time range: 0-14 minutes; m/z range: 100-1000; mass tolerance range: 0.01 Da; peak intensity threshold: 50; mass window: 0.05 Da; retention time window: 0.2 minutes; and automatic detection of 5% peak height and noise. The intensity of each ion was normalized relative to the total ion count to produce a data list consisting of retention time, m/z value and standardized peak area. The data were imported into EZinfo 2.0 for supervised partial least squares discriminant analysis (PLS-DA) and orthogonal partial least squares discriminant analysis (OPLS-DA). The separation of various metabolites between the control group and the model group was shown in the OPLS-DA plot. Potential biomarkers were extracted from the S-plot constructed after OPLS-DA analysis, and each point in the S-plot represented the information of the corresponding variable. The variable importance in the projection (VIP) was measured by the magnitude of the VIP value. The variables were screened according to the VIP value, and the variable with VIP>1 may be selected as a potential biomarker and the molecular formula of the variable of significant difference between the model group and the control group was further identified. Cross validation parameters R^2Y and Q^2were used to describe the PLS-DA score plot, which represented the total explanatory variables of the […] and the predictability of the model, respectively. When a cumulative value of R^2Y and Q^2 was greater than 0.8, the model may be considered to be reliable. The relative distances between other groups and the control group in the PLS-DA score plot were calculated using the average values of all samples (X and Y axes) of the control group as reference points. This quantitative value can be used as an evaluation index of pharmacodynamics and metabonomics to solve many problems in lacking of accurate and quantitative evaluation methods for pharmacodynamics. SPSS 21.0 software was used for statistical analysis of the relevant data. T-test analysis was performed among groups to verify the significance of the difference of potential biomarkers in different groups. The data were expressed as mean±SD, and the data were considered to have a statistical significance with P<0.05. […]

[5] = test system: kidneys of db/db mice; test: Pathological sections of kidney (HE, PAS) of db/db mice; format: in vivo; details: 6 weeks, irbesartan 50, verbascoside 70.8 mg·kg^−1·d^−1
[6] = test system: HK-2 cells; test: Morphology of high-glucose induced HK-2 cells; format: cell-based, human; details: 50 μmol/L, 48 hours
[7] = rats; cited from earlier work
[8] = test system: MCP-1, IL-1β, TNF-α and IL-6 in supernatant of HK-2 cells; test: Secretion of inflammatory factors in supernatant of HK-2 cells (ELISA); format: cell-based, human; details: 50 μmol/L, HK-2 cells with high glucose-induced injuries
Text: (§2) In the present invention, human renal tubular epithelial (HK-2) cells are selected to establish a high sugar-induced HK-2 cell injury model, and TLR capsules, TLR extract and its major active components verbascoside and catalpol are used for intervention. The expression quantity of related proteins and mRNA in each cell is detected using Western blotting method and Real-time PCR, and the secretion of related factors in cell supernatant is detected using ELISA. In addition, the effect of TLR on regulating oxidative stress reactions of HK-2 cells and TGF-β/smad signal pathway is further explored.
as §1

[9] = test system: nephrotoxic nephritis rats model; details: cited from earlier work
[10] = test system: NOX1, NOX2, NOX4, α-SMA, E-cadherin, NF-κB p65, TGF-β1, Smad2, Smad3, Smad4 and Smad7 in HK-2 cells; test: mRNA expression in high-glucose induced HK-2 cells (Real-time PCR); format: cell-based, human; details: 50 μmol/L, HK-2 cells with high glucose-induced injuries
Text: as §2, §1

[11] = 50 μmol·L^−1, high glucose 30 mmol/L
[12] = 10 μmol·L^−1, high glucose 30 mmol/L
[13] = 25 μmol·L^−1, high glucose 30 mmol/L
[14] = 100 μmol·L^−1, high glucose 30 mmol/L

OC[C@H]1O[C@@H](O[C@@H]2OC=C[C@H]3[C@H](O)[C@@H]4O[C@]4(CO)[C@@H]23)[C@H](O)[C@@H](O)[C@@H]1O [catalpol, reference compound]
effect on the formation of EMT [1]: had an effect on inhibiting | effect on the proliferation of HK-2 [2]: had an effect on inhibiting

CCCCC1=NC2(CCCC2)C(=O)N1Cc1ccc(-c2ccccc2-c2nnn[nH]2)cc1 [irbesartan, reference compound]
contents of FBG, T-CHO, TG, GOT, GPT, INS, BUN, mALB and Scr [3]: tended to be normal | OD [2, 11]: 0.576 ± 0.02 | inhibition ratio % [2, 11]: 80.57% | Relative distance between administration group and control group in PLS-DA score plot, ESI − [4]: 32.16 ± 10 | Relative distance between administration group and control group in PLS-DA score plot, ESI + [4]: 21.56 ± 8.01 | results of histological examination of kidney (HE, PAS mean OD) [5]: close to those of the control group | cell morphologies [6]: close to those of the control group

CN(C)C(=N)N=C(N)N [metformin]
contents of FBG, T-CHO, TG, GOT, GPT, INS, BUN, mALB and Scr [3]: tended to be normal | Relative distance between administration group and control group in PLS-DA score plot, ESI − [4]: 34.94 ± 2.74 | Relative distance between administration group and control group in PLS-DA score plot, ESI + [4]: 36.57 ± 1.53

C[C@@H]1O[C@@H](O[C@@H]2[C@@H](O)[C@H](OCCc3ccc(O)c(O)c3)O[C@H](CO)[C@H]2OC(=O)/C=C/c2ccc(O)c(O)c2)[C@H](O)[C@H](O)[C@H]1O [verbascoside]
oral bioavailability [7]: low | expression levels of MCP-1, IL-1β, TNF-α and IL-6 in the supernatant [8]: returned to normal | protein expressions of NOX1, NOX2, NOX4, α-SMA, E-cadherin, NF-κB p65, TGF-β1, Smad2, Smad3, Smad4 and Smad7 ([1]; 50 μmol/L, HK-2 cells with high-glucose induced injuries): all returned to normal | effect on the formation of EMT [1]: had an effect on inhibiting | contents of FBG, T-CHO, TG, GOT, GPT, INS, BUN, mALB and Scr [3]: tended to be normal | inhibition ratio % ([2]; 5 μmol·L^−1, high glucose 30 mmol/L): 25.52% | OD ([2]; 5 μmol·L^−1, high glucose 30 mmol/L, control 0.632, model 0.345): 0.418 ± 0.008 | OD [2, 12]: 0.457 ± 0.014 | inhibition ratio % [2, 12]: 39.02% | OD [2, 13]: 0.501 ± 0.015 | inhibition ratio % [2, 13]: 54.36% | OD [2, 11]: 0.557 ± 0.012 | inhibition ratio % [2, 11]: 73.95% | OD [2, 14]: 0.559 ± 0.01 | inhibition ratio % [2, 14]: 74.65% | proliferation of HK-2 cells under a high glucose condition ([2]; 5, 10, 25, 50, 100 μmol/L): could promote the proliferation of HK-2 cells under a high glucose condition, and the promotion of the proliferation was dose-dependent | effect on the proliferation of HK-2 [2]: had an effect on inhibiting | Relative distance between administration group and control group in PLS-DA score plot, ESI − [4]: 28.59 ± 3.33 | Relative distance between administration group and control group in PLS-DA score plot, ESI + [4]: 31.62 ± 1.07 | adverse effects [9]: without causing obvious adverse effects | renal function injury [9]: capable of improving | mRNA expressions of NOX1, NOX2, NOX4, α-SMA, E-cadherin, NF-κB p65, TGF-β1, Smad2, Smad3, Smad4 and Smad7 [10]: all returned to normal | results of histological examination of kidney (HE, PAS mean OD) [5]: close to those of the control group | cell morphologies [6]: close to those of the control group
